Laboratory results taken from PubChem BioAssay (NCI).
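Compound exposure: 48 hours, 5 concentrations, 96-well plates. GI50 = concentration required for 50% inhibition of growth. Definition used: TGI = concentration required for complete inhibition of growth.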

How the values were obtained:
Assay in all cases: DTP human tumour cell line panel, 48 h
M14 melanoma = test system: M14 melanoma
A549 NSCLC = test system: A549 NSCLC
SR leukemia = test system: SR leukemia
DU-145 prostate = test system: DU-145 prostate
U251 CNS = test system: U251 CNS
OVCAR-3 ovarian = test system: OVCAR-3 ovarian
A498 renal = test system: A498 renal
SK-MEL-5 melanoma = test system: SK-MEL-5 melanoma
SNB-19 CNS = test system: SNB-19 CNS
MCF7 breast = test system: MCF7 breast
KM12 colon = test system: KM12 colon
NCI-H23 lung = test system: NCI-H23 lung
SF-268 CNS = test system: SF-268 CNS
NCI-H226 lung = test system: NCI-H226 lung
BT-549 breast = test system: BT-549 breast
PC-3 prostate = test system: PC-3 prostate
SF-539 CNS = test system: SF-539 CNS
CAKI-1 renal = test system: CAKI-1 renal
HCC-2998 colon = test system: HCC-2998 colon
MALME-3M melanoma = test system: MALME-3M melanoma
UACC-257 melanoma = test system: UACC-257 melanoma
IGROV1 ovarian = test system: IGROV1 ovarian
HCT-116 colon = test system: HCT-116 colon
MOLT-4 leukemia = test system: MOLT-4 leukemia
HS 578T breast = test system: HS 578T breast
LOX IMVI melanoma = test system: LOX IMVI melanoma
HOP-92 NSCLC = test system: HOP-92 NSCLC
NCI/ADR-RES ovarian = test system: NCI/ADR-RES ovarian
UO-31 renal = test system: UO-31 renal
HCT-15 colon = test system: HCT-15 colon
SK-OV-3 ovarian = test system: SK-OV-3 ovarian
HOP-62 NSCLC = test system: HOP-62 NSCLC
RPMI-8226 leukemia = test system: RPMI-8226 leukemia
SN12C renal = test system: SN12C renal
OVCAR-8 ovarian = test system: OVCAR-8 ovarian
MDA-MB-231 breast = test system: MDA-MB-231 breast
COLO 205 colon = test system: COLO 205 colon
K-562 leukemia = test system: K-562 leukemia
SNB-75 CNS = test system: SNB-75 CNS
HL-60(TB) leukemia = test system: HL-60(TB) leukemia
SW-620 colon = test system: SW-620 colon
T-47D breast = test system: T-47D breast
RXF 393 renal = test system: RXF 393 renal
CCRF-CEM leukemia = test system: CCRF-CEM leukemia
SF-295 CNS = test system: SF-295 CNS
SK-MEL-2 melanoma = test system: SK-MEL-2 melanoma
EKVX NSCLC = test system: EKVX NSCLC
786-0 renal = test system: 786-0 renal
OVCAR-4 ovarian = test system: OVCAR-4 ovarian
SK-MEL-28 melanoma = test system: SK-MEL-28 melanoma
UACC-62 melanoma = test system: UACC-62 melanoma
NCI-H460 lung = test system: NCI-H460 lung
TK-10 renal = test system: TK-10 renal
NCI-H522 lung = test system: NCI-H522 lung

With C1=C2CNCC3=Cc4ccc5ccccc5c4OC23Oc2c1ccc1ccccc21 the GI50 (M14 melanoma) was 2170 nM, the TGI (M14 melanoma) was 5.08 µM and the GI50 (A549 NSCLC) was 4.48 µM. For the same compound, the TGI (A549 NSCLC) was 20.5 µM, the GI50 (SR leukemia) was 2200 nM and the TGI (SR leukemia) was 5.4 µM. For the same compound, the GI50 (DU-145 prostate) was 3.29 µM, the TGI (DU-145 prostate) was 11.1 µM and the GI50 (U251 CNS) was 3.26 µM. The TGI (U251 CNS) was 14.8 µM, the GI50 (OVCAR-3 ovarian) was 2340 nM and the TGI (OVCAR-3 ovarian) was 5.5 µM. It also gave a GI50 (A498 renal) of 3.87 µM, a TGI (A498 renal) of 17 µM and a GI50 (SK-MEL-5 melanoma) of 3.15 µM. For the same compound, the TGI (SK-MEL-5 melanoma) was 13.9 µM, the GI50 (SNB-19 CNS) was 6.95 µM and the TGI (SNB-19 CNS) was 29.3 µM. For the same compound, the GI50 (MCF7 breast) was 2830 nM, the TGI (MCF7 breast) was 12.7 µM and the GI50 (KM12 colon) was 3.83 µM. The TGI (KM12 colon) was 16.3 µM, the GI50 (NCI-H23 lung) was 6.94 µM and the TGI (NCI-H23 lung) was 32 µM. It also gave a GI50 (SF-268 CNS) of 5.64 µM, a TGI (SF-268 CNS) of 22.1 µM and a GI50 (NCI-H226 lung) of 10.6 µM. For the same compound, the TGI (NCI-H226 lung) was 27.6 µM, the GI50 (BT-549 breast) was 11.3 µM and the TGI (BT-549 breast) was 40.7 µM. For the same compound, the GI50 (PC-3 prostate) was 3.5 µM, the TGI (PC-3 prostate) was 18.2 µM and the GI50 (SF-539 CNS) was 3.36 µM. It also gave a TGI (SF-539 CNS) of 14.9 µM, a GI50 (CAKI-1 renal) of 3.29 µM and a TGI (CAKI-1 renal) of 20.7 µM. It also gave a GI50 (HCC-2998 colon) of 3.99 µM, a TGI (HCC-2998 colon) of 19.7 µM and a GI50 (MALME-3M melanoma) of 12.5 µM. It also gave a TGI (MALME-3M melanoma) of 38.5 µM, a GI50 (UACC-257 melanoma) of 12.6 µM and a TGI (UACC-257 melanoma) of 38.7 µM. The GI50 (IGROV1 ovarian) was 9.59 µM, the TGI (IGROV1 ovarian) was 28.7 µM and the GI50 (HCT-116 colon) was 3.01 µM. The TGI (HCT-116 colon) was 13.1 µM, the GI50 (MOLT-4 leukemia) was 2860 nM and the TGI (MOLT-4 leukemia) was 10.6 µM. For the same compound, the GI50 (HS 578T breast) was 2240 nM, the TGI (HS 578T breast) was 10.4 µM and the GI50 (LOX IMVI melanoma) was 2430 nM. The TGI (LOX IMVI melanoma) was 7.48 µM, the GI50 (HOP-92 NSCLC) was 2860 nM and the TGI (HOP-92 NSCLC) was 17.1 µM. It also gave a GI50 (NCI/ADR-RES ovarian) of 2100 nM, a TGI (NCI/ADR-RES ovarian) of 6.06 µM and a GI50 (UO-31 renal) of 3.54 µM. It also gave a TGI (UO-31 renal) of 21.5 µM, a GI50 (HCT-15 colon) of 3.9 µM and a TGI (HCT-15 colon) of 22.6 µM. It also gave a GI50 (SK-OV-3 ovarian) of 3.41 µM, a TGI (SK-OV-3 ovarian) of 12.8 µM and a GI50 (HOP-62 NSCLC) of 4.47 µM. The TGI (HOP-62 NSCLC) was 16.7 µM, the GI50 (RPMI-8226 leukemia) was 5.44 µM and the TGI (RPMI-8226 leukemia) was 65.3 µM. It also gave a GI50 (SN12C renal) of 4.22 µM, a TGI (SN12C renal) of 20.1 µM and a GI50 (OVCAR-8 ovarian) of 2990 nM. The TGI (OVCAR-8 ovarian) was 14.9 µM, the GI50 (MDA-MB-231 breast) was 9.34 µM and the TGI (MDA-MB-231 breast) was 27.2 µM. For the same compound, the GI50 (COLO 205 colon) was 2090 nM, the TGI (COLO 205 colon) was 4.23 µM and the GI50 (K-562 leukemia) was 2950 nM. For the same compound, the TGI (K-562 leukemia) was 21.2 µM, the GI50 (SNB-75 CNS) was 2320 nM and the TGI (SNB-75 CNS) was 11.5 µM. It also gave a GI50 (HL-60(TB) leukemia) of 2690 nM, a TGI (HL-60(TB) leukemia) of 7.68 µM and a GI50 (SW-620 colon) of 2520 nM. For the same compound, the TGI (SW-620 colon) was 10.5 µM, the GI50 (T-47D breast) was 8.28 µM and the TGI (T-47D breast) was 23.2 µM. For the same compound, the GI50 (RXF 393 renal) was 1790 nM, the TGI (RXF 393 renal) was 6.16 µM and the GI50 (CCRF-CEM leukemia) was 3.65 µM. For the same compound, the TGI (CCRF-CEM leukemia) was > 100 µM, the GI50 (SF-295 CNS) was 3.07 µM and the TGI (SF-295 CNS) was 15.6 µM. For the same compound, the GI50 (SK-MEL-2 melanoma) was 5.47 µM, the TGI (SK-MEL-2 melanoma) was 22.8 µM and the GI50 (EKVX NSCLC) was 5.81 µM. The TGI (EKVX NSCLC) was 34.1 µM, the GI50 (786-0 renal) was 5.1 µM and the TGI (786-0 renal) was 31.5 µM. The GI50 (OVCAR-4 ovarian) was 4.71 µM, the TGI (OVCAR-4 ovarian) was 19.8 µM and the GI50 (SK-MEL-28 melanoma) was 7.38 µM. For the same compound, the GI50 (UACC-62 melanoma) was 5.05 µM, the TGI (UACC-62 melanoma) was 21.7 µM and the GI50 (NCI-H460 lung) was 3.27 µM. For the same compound, the TGI (NCI-H460 lung) was 13.1 µM, the GI50 (TK-10 renal) was 9.08 µM and the TGI (TK-10 renal) was 27.4 µM. For the same compound, the GI50 (NCI-H522 lung) was 3.01 µM and the TGI (NCI-H522 lung) was 13.1 µM.
